Experimental findings from ChEMBL document CHEMBL1139712, “Interaction of N1-unsubstituted and N1-benzenesulfonyltryptamines at h5-HT6 receptors” (Bioorg Med Chem Lett, 2006) are described below.

In general, Ki refers to a measure of affinity in units of concentration, obtained from inhibition or displacement. Lower therefore signals tighter binding.

The target of the test is 5-hydroxytryptamine receptor 6 (Homo sapiens, UniProt P50406). The test can be described thus: Displacement of [3H]LSD from human 5HT6 receptor expressed in HEK293 cells. It counts as cell-based. Background: In a radioligand displacement assay an active substance lowers the binding of a labelled ligand.
Chain of 5-hydroxytryptamine receptor 6 (P50406 whole entry): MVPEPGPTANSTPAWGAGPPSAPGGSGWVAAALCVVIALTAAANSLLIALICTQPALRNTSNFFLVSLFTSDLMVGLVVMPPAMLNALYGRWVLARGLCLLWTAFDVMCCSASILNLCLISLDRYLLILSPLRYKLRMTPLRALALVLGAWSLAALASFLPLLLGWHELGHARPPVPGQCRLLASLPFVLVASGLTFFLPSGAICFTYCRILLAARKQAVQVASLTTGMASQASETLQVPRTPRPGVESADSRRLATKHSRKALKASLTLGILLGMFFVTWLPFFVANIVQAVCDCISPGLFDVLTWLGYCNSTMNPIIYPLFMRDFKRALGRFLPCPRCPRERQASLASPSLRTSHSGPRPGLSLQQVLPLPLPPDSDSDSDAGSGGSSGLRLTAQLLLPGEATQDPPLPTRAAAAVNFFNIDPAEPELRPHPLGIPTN
Compound `CN(C)CCc1cn2c3c(cccc13)-c1ccccc1S2(=O)=O` registered a Ki of 4.5 µM.

As to `CCN(CC)CCc1cn(S(=O)(=O)c2ccccc2)c2ccccc12`, the Ki amounted to 0.014 µM.

Regarding `COc1cccc2c1c(CCN(C)C)cn2S(=O)(=O)c1ccccc1`, the Ki came out at 0.011 µM.

The compound `CCN(CC)CCc1c[nH]c2ccccc12` returned an inhibitory constant (Ki) of 0.575 µM.

`CN(C)CCc1c2n(c3ccccc13)S(=O)(=O)c1ccccc1-2` gave a Ki of 0.143 µM.

Turning to `COc1ccc2c(CCN(C)C)cn(S(=O)(=O)c3ccccc3)c2c1`, the Ki was found to be 0.015 µM.

Compound `COc1ccc2[nH]cc(CCN(C)Cc3ccccc3)c2c1` displayed a Ki of 0.106 µM.
